Test results reported in patent US20190124918A1, “BIOFILM FORMATION INHIBITOR AND BIOFILM FORMATION INHIBITING COMPOSITION” (KAO CORPORATION, priority 2016, published 2019).

Columns and labels:
Format in all cases: cell-based
[1] = system: cooling water taken from a water cooling tower; assay: Aqueous system model (annular reactor): number of bacterial cells in water at inlet and outlet (R2A agar); conditions: Test Example 4; 15 ppm in cooling water; solvent control also about 10^4
Experimental: Biofilm formation inhibitory activity of p-toluquinone (Tokyo Kasei) was evaluated by an aqueous system model using an annular reactor (Art Science Co., Ltd.) having a 100 mL-volume culture tank. In the culture tank of the annular reactor, a cylindrical rotating body rotating at a speed of 160 rounds per minute was installed. To the rotating body, 12 test pieces were attached in advance. These test pieces were taken out at predetermined time intervals and biofilm formed on the test pieces was quantified. From a water cooling tower provided on a building rooftop and actually used, cooling water was taken and supplied to the annular reactor culture vessel (maintained at 30° C.) at a flow rate of 10 mL per minute; at the same time, an ethanol solution (15 g/L) of p-toluquinone was separately supplied to the annular reactor culture vessel by a syringe pump YSP-201 (manufactured by YMC) at a flow rate of 10 μL per minute (p-toluquinone concentration in cooling water in the culture tank was 15 ppm). The test pieces (n=2) taken out from the culture tank at predetermined time intervals were stained with 0.1% crystal violet, thoroughly washed twice with physiological saline and recovered in ethanol (15 mL). The absorbance (OD570) was measured to obtain the amount of the biofilm formed. […] Thereafter, the number of bacteria cells was measured. […]

[2] = system: biofilm-forming microbe isolated from cooling water taken from a water cooling tower; assay: Biofilm inhibition test, quinone-based compound and chelating agent (OD570)
Experimental: A biofilm-forming microbe (microbe showing a OD570 value of 0.3 or more in the test for determining the amount of biofilm (the following section 2-4)) isolated from cooling water taken from a water cooling tower was cultured in R2A culture medium at 30° C. for 16 hours while shaking. The turbidity (OD600) of the resultant culture solution was measured. The culture solution was diluted with R2A culture medium to prepare a suspension of 10^3 cfu/mL.
Predetermined amounts of p-toluquinone and HEDP were weighed and solvent (MDG) was added to prepare a composition. Since citric acid and EDTA were not dissolved in MDG, they were directly added in culture solutions; at the same time, p-toluquinone was directly added to the culture solutions.
The suspension of a test microbe prepared in the above section 2-1) was added in individual wells of a 96 well microplate in an amount of 150 μL, and then, the test solutions prepared in the above section 2-2) was each added and culture was initiated.
After the 96 well microplate was subjected to stationary culture performed at 30° C. for 48 hours, the culture solution was removed and the resultant microplate was washed with water. Subsequently, each well was stained with 0.1% crystal violet and 200 μL of ethanol was added. The absorbance (OD570) was measured to obtain the amount of biofilm (BF) formed.

[3] = system: Pseudomonas PAO1 strain (ATCC 15692); assay: Amount of biofilm formed (crystal violet, OD570), 96-well microplate culture
Procedure, shortened: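 PAO1 suspension in Mueller Hinton Broth (OD600 1/10^6) grown stationary 24 h at 30 °C with compounds dried from ethanol plus DMSO, final about 7–333 ppm or as listed. Biofilm stained with 0.1% crystal violet, ethanol-eluted, OD570; inhibition % = {1−(compound OD570/ethanol-control OD570)}×100.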

With `CC1=CC(=O)C=CC1=O` [Compound a, p-Toluquinone] the “number of bacterial cells at the inlet or outlet of the reactor” value [1] was “about 10^4 cells/mL”, the “BF inhibitory effect of combined use of HEDP and p-toluquinone compared with p-toluquinone alone” value ([2]; Experiment No. 2 compared to Nos. 5 to 8) was “higher” and the OD570 ([2]; Experiment No. 12: Toluquinone 5 ppm, Citric acid 0 ppm, 0 ppm/0 ppm gave 0.329) was 0.236. The “BF inhibitory effect of combined use of citric acid and p-toluquinone compared with p-toluquinone alone” value ([2]; Experiment No. 12 compared to Nos. 15 to 18) was “higher”, the OD570 ([2]; Experiment No. 13: Toluquinone 10 ppm, Citric acid 0 ppm, 0 ppm/0 ppm gave 0.329) was 0.048 and the OD570 ([2]; Experiment No. 14: Toluquinone 20 ppm, Citric acid 0 ppm, 0 ppm/0 ppm gave 0.329) was 0.051. It also gave an OD570 ([2]; Experiment No. 15: Toluquinone 5 ppm, Citric acid 0.5 ppm, 0 ppm/0 ppm gave 0.329) of 0.057, an OD570 ([2]; Experiment No. 16: Toluquinone 5 ppm, Citric acid 2.5 ppm, 0 ppm/0 ppm gave 0.329) of 0.054 and an OD570 ([2]; Experiment No. 17: Toluquinone 5 ppm, Citric acid 5 ppm, 0 ppm/0 ppm gave 0.329) of 0.054. The OD570 ([2]; Experiment No. 18: Toluquinone 5 ppm, Citric acid 10 ppm, 0 ppm/0 ppm gave 0.329) was 0.053, the OD570 ([2]; Experiment No. 21: Tuluquinone 5 ppm, EDTA 0 ppm, 0 ppm/0 ppm gave 0.407) was 0.358 and the “BF inhibitory effect of combined use of EDTA and p-toluquinone compared with p-toluquinone alone” value ([2]; Experiment No. 21 compared to Nos. 24 to 26) was “higher”. It also gave an OD570 ([2]; Experiment No. 22: Tuluquinone 10 ppm, EDTA 0 ppm, 0 ppm/0 ppm gave 0.407) of 0.048, an OD570 ([2]; Experiment No. 23: Tuluquinone 20 ppm, EDTA 0 ppm, 0 ppm/0 ppm gave 0.407) of 0.051 and an OD570 ([2]; Experiment No. 24: Tuluquinone 5 ppm, EDTA 2.5 ppm, 0 ppm/0 ppm gave 0.407) of 0.151. The OD570 ([2]; Experiment No. 25: Tuluquinone 5 ppm, EDTA 5 ppm, 0 ppm/0 ppm gave 0.407) was 0.077, the OD570 ([2]; Experiment No. 26: Tuluquinone 5 ppm, EDTA 10 ppm, 0 ppm/0 ppm gave 0.407) was 0.078 and the “The amount of the biofilm formed OD570” value ([3]; final concentration 7 ppm, EtOH control 0.9163) was 0.7549. The “BF inhibition (%)” value ([3]; final concentration 17 ppm) was 18.6%, the “The amount of the biofilm formed OD570” value ([3]; final concentration 20 ppm, EtOH control 0.9564) was 0.8231 and the “BF inhibition (%)” value ([3]; final concentration 33 ppm) was 36.6%. For the same compound, the “The amount of the biofilm formed OD570” value ([3]; final concentration 33 ppm, EtOH control 0.8974) was 0.7891, the “BF inhibition (%)” value ([3]; final concentration 66 ppm) was 39.9% and the “The amount of the biofilm formed OD570” value ([3]; final concentration 67 ppm, EtOH control 0.8853) was 0.7094. The “BF inhibition (%)” value ([3]; final concentration 99 ppm) was 73.7%, the “BF inhibition (%)” value ([3]; final concentration 116 ppm) was 86.3% and the “BF inhibition (%)” value ([3]; final concentration 132 ppm) was 85.1%. For the same compound, the “The amount of the biofilm formed OD570” value ([3]; final concentration 200 ppm, EtOH control 0.9248) was 0.7089, the “The amount of the biofilm formed OD570” value ([3]; final concentration 333 ppm, EtOH control 0.9562) was 0.1222 and the “biofilm formation (in words)” value ([3]; high concentration range of 200 ppm or more) was “inhibited”. For the same compound, the “biofilm formation (in words)” value ([3]; low concentration range of less than 200 ppm) was “inhibited”.
